By melting point is commonly meant the temperature, or range, at which the solid turns liquid.

Consider `CN(C)c1ncnn2c([C@@H]3O[C@H](CO)[C@@H](O)[C@@]3(C)O)ccc12` [Example 2, (2S,3R,4R,5R)-2-(4-(Dimethylamino)pyrrolo[1,2-f][1,2,4]triazin-7-yl)-5-(hydroxymethyl)-3-methyltetrahydrofuran-3,4-diol], for which the melting point was determined as 181 °C. With `C=Cc1cc([C@@H]2O[C@H](CO)[C@@H](O)[C@@]2(C)O)n2ncnc(N)c12` [Example 4, (2S,3R,4R,5R)-2-(4-Amino-5-vinylpyrrolo[1,2-f][1,2,4]triazin-7-yl)-5-(hydroxymethyl)-3-methyltetrahydrofuran-3,4-diol], the melting point lay in the range of 128 to 131 °C.

The record behind these values is US8440813B2, “Antiviral nucleoside analogs” (BioCryst Pharmaceuticals, Inc., priority 2007, dated 2013).
